{"source": "patent US20240325326A1", "about": "“METHOD OF TREATING PULMONARY FIBROSIS BY TARGETING GLYCOGEN UTILIZATION” (University of Kentucky Research Foundation, priority 2023, published 2024)", "system": "diseased human lung fibroblasts (DHLF)", "experiment": "Fibrosis-related gene expression (Bio-rad Prime PCR Fibrosis gene panel) in human lung fibroblasts treated for two days with a laforin inhibitor", "type": "cell-based", "conditions": "NHLF or DHLF derived from idiopathic pulmonary fibrosis patients; treated two days vs vehicle control; mRNA; n=3 samples per condition; FIG. 14", "experimental": "Normal human lung fibroblasts (NHLF) or diseased human lung fibroblasts (DHLF) derived from idiopathic pulmonary fibrosis patients were treated for two days with a laforin inhibitor (or vehicle control) before harvesting mRNA and assessing gene expression. Samples were run on Bio-rad Prime PCR Fibrosis gene panel plates with n=3 samples per condition. *p<0.05, ***p<0.001 two-tailed student's t-test.\nNormal human lung fibroblasts (NHLF) or diseased human lung fibroblasts (DHLF) derived from idiopathic pulmonary fibrosis patients were treated for two days with a laforin inhibitor (or vehicle control). […] Following treatment, mRNA was harvested from the cells and gene expression was assessed.", "note": "Entries after “also recorded” stand apart in the source; their conditions may differ.", "data": [{"molecule": "O=C(Nc1ccc(OCc2ccccc2)c(Cl)c1)C(=O)Nc1ccccc1NC(=O)C(c1ccccc1)S(=O)(=O)O", "note": "(stereo not shown) [L319-21-M50]", "values": [{"measurement": "fibrosis-related gene expression", "result": "disease-specific expression patterns being rescued by laforin inhibition; also recorded: decreases fibrosis-related gene expression in diseased human lung fibroblasts"}]}]}
